Measured values from ChEMBL document CHEMBL4665643 (Bioorg Med Chem Lett, 2019).

Legend:
[1] = target: Proto-oncogene tyrosine-protein kinase ROS (Homo sapiens) (UniProt P08922); test: Inhibition of recombinant human GST-tagged […] ROS1 (1883 to 2347 residues) expressed in baculovirus expression system using Tyr 01 as substrate at 0.1 uM incubated for 60 mins by Z'-Lyte assay relative to control
[2] = target: T1, Serine/threonine-protein kinase TAO2 (Homo sapiens) (UniProt Q9UL54); test: Inhibition of recombinant human GST-tagged TAO2 (1 to 314 residues) expressed in baculovirus expression system using Ser/Thr 07 as substrate at 0.1 uM incubated for 60 mins by Z'-Lyte assay relative to control
T1 sequence (whole entry): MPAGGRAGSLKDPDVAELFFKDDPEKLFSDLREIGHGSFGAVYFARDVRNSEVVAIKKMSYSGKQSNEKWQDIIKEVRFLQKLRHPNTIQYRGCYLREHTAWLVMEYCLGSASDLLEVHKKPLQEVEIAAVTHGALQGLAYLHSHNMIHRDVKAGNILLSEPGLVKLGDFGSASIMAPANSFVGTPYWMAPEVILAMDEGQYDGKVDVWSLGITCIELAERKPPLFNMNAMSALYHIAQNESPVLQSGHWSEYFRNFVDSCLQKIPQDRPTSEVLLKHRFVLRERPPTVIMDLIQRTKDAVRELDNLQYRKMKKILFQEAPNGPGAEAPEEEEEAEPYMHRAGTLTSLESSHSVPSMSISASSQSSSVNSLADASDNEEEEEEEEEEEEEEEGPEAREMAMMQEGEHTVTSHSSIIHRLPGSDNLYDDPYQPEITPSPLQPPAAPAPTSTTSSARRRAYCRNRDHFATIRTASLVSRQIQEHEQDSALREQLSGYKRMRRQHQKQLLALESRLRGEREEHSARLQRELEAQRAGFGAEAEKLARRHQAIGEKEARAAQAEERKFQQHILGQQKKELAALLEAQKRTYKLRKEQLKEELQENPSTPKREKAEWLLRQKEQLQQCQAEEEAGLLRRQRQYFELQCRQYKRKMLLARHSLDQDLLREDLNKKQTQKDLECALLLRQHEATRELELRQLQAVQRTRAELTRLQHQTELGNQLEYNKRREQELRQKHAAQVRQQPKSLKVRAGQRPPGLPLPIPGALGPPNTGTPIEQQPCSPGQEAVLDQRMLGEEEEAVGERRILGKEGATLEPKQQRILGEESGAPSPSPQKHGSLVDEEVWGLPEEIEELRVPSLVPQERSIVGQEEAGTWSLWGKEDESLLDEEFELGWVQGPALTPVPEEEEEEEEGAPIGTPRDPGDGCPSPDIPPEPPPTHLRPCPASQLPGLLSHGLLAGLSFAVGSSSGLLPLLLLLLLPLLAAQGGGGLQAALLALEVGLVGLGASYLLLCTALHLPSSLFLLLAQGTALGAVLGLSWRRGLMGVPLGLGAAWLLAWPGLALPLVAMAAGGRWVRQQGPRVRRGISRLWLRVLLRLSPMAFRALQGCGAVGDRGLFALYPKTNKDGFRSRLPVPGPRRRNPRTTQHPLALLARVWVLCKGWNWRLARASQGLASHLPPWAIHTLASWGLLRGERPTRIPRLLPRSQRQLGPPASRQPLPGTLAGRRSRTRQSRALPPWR

[3] = target: Fibroblast growth factor receptor 1 (Homo sapiens) (UniProt P11362); test: Inhibition of recombinant human His-tagged FGFR1 (308 to 731 residues) expressed in baculovirus expression system using Tyr 01 as substrate at 0.1 uM incubated for 60 mins by Z'-Lyte assay relative to control
[4] = target: T2, cGMP-dependent protein kinase 1 (Homo sapiens) (UniProt Q13976); test: Inhibition of recombinant human GST-tagged full length PKG1 alpha expressed in baculovirus expression system using Ser/Thr 01 as substrate at 0.1 uM incubated for 60 mins by Z'-Lyte assay relative to control
T2 sequence (whole entry): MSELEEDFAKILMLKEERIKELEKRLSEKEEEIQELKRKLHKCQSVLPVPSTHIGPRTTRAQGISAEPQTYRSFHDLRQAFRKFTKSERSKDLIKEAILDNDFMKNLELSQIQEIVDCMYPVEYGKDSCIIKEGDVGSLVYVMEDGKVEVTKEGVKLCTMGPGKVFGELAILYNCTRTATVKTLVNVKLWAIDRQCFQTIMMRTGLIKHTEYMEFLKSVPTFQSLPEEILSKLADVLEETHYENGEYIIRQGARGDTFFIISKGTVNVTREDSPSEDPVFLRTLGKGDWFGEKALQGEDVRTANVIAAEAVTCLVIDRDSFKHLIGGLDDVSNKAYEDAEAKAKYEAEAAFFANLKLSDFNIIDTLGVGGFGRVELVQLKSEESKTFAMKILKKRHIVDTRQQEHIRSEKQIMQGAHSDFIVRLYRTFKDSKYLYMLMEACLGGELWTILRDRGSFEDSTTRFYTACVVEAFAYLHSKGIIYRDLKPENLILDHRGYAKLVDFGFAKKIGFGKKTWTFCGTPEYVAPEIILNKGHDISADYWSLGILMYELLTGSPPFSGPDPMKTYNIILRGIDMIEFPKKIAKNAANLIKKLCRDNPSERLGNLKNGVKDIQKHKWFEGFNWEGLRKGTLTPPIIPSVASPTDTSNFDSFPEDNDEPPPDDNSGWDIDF

[5] = target: Tyrosine-protein kinase Yes (Homo sapiens) (UniProt P07947); test: Inhibition of recombinant human GST-tagged full length YES expressed in baculovirus expression system using Tyr 02 as substrate at 0.1 uM incubated for 60 mins by Z'-Lyte assay relative to control
[6] = target: Serine/threonine-protein kinase mTOR (Homo sapiens) (UniProt P42345); test: Inhibition of recombinant human GST-tagged mTOR (1360 to 2549 residues) expressed in Escherichia coli expression system using Ser/Thr 11 as substrate at 0.1 uM incubated for 60 mins by Z'-Lyte assay relative to control
[7] = target: Insulin receptor (Homo sapiens) (UniProt P06213); test: Inhibition of recombinant human GST-tagged InsR (1011 to 1382 residues) expressed in baculovirus expression system using Tyr 01 as substrate at 0.1 uM incubated for 60 mins by Z'-lyte assay relative to control
[8] = target: Protein kinase C alpha type (Homo sapiens) (UniProt P17252); test: Inhibition of recombinant human His-tagged full length PKCalpha expressed in Escherichia coli expression system using Ser/Thr 07 as substrate at 0.1 uM incubated for 60 mins by Z'-lyte assay relative to control
[9] = target: Tyrosine-protein kinase CSK (Homo sapiens) (UniProt P41240); test: Inhibition of recombinant human GST-tagged full length CSK expressed in Escherichia coli expression system using Tyr 02 as substrate at 0.1 uM incubated for 60 mins by Z'-Lyte assay relative to control
[10] = target: High affinity nerve growth factor receptor (Homo sapiens) (UniProt P04629); test: Inhibition of recombinant human His-tagged TRKA (441 to 796 residues) expressed in baculovirus expression system using Tyr 01 as substrate at 0.1 uM incubated for 60 mins by Z'-Lyte assay relative to control
Sequence of High affinity nerve growth factor receptor (Homo sapiens) (P04629 33-796 limits assumed): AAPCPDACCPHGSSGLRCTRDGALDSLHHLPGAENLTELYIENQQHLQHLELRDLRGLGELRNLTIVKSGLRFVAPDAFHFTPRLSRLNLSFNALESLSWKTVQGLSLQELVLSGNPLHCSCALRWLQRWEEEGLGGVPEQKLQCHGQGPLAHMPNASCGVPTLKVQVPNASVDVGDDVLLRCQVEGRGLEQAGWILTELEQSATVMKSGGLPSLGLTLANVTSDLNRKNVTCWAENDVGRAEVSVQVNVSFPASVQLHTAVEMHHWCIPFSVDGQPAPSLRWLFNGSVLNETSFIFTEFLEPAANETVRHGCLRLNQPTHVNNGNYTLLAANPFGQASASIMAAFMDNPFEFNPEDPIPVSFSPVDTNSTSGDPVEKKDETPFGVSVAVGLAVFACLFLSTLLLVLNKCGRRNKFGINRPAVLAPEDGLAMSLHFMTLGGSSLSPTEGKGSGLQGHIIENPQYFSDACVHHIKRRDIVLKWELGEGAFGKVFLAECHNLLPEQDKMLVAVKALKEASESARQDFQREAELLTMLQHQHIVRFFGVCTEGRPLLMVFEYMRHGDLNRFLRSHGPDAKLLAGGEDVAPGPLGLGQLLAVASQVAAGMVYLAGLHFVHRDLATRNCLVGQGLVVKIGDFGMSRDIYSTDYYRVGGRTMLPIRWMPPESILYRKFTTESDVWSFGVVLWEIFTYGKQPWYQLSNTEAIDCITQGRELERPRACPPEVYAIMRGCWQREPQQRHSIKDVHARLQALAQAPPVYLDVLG

Sequence of Tyrosine-protein kinase Yes (Homo sapiens) (P07947 2-543 limits assumed): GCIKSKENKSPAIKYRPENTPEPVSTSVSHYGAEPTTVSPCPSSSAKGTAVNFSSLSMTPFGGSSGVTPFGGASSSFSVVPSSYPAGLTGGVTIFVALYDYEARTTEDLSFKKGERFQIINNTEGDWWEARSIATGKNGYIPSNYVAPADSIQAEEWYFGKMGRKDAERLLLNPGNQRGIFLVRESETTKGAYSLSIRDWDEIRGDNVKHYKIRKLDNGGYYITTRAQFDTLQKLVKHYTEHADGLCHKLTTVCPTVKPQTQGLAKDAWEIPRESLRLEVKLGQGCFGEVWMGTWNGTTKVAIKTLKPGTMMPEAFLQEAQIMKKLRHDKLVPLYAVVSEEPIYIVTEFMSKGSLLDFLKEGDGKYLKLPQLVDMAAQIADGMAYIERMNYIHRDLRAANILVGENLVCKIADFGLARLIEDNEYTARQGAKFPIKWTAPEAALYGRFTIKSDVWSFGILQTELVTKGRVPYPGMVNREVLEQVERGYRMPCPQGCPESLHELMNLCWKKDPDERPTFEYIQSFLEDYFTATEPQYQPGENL
Sequence of Tyrosine-protein kinase CSK (Homo sapiens) (P41240 2-450 limits assumed): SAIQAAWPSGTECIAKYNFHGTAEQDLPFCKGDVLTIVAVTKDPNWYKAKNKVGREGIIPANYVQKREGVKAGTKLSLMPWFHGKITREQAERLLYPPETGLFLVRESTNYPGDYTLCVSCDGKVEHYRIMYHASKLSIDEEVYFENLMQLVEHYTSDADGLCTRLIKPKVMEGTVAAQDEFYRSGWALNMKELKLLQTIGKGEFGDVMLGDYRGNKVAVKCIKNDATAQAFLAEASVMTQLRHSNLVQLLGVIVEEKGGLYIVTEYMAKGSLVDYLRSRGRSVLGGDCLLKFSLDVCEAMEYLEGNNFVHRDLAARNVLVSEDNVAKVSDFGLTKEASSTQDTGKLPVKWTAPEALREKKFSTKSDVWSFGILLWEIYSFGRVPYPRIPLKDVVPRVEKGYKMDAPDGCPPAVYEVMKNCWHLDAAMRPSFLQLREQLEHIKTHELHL
Sequence of Proto-oncogene tyrosine-protein kinase ROS (Homo sapiens) (P08922 whole entry, the tested form may be a part): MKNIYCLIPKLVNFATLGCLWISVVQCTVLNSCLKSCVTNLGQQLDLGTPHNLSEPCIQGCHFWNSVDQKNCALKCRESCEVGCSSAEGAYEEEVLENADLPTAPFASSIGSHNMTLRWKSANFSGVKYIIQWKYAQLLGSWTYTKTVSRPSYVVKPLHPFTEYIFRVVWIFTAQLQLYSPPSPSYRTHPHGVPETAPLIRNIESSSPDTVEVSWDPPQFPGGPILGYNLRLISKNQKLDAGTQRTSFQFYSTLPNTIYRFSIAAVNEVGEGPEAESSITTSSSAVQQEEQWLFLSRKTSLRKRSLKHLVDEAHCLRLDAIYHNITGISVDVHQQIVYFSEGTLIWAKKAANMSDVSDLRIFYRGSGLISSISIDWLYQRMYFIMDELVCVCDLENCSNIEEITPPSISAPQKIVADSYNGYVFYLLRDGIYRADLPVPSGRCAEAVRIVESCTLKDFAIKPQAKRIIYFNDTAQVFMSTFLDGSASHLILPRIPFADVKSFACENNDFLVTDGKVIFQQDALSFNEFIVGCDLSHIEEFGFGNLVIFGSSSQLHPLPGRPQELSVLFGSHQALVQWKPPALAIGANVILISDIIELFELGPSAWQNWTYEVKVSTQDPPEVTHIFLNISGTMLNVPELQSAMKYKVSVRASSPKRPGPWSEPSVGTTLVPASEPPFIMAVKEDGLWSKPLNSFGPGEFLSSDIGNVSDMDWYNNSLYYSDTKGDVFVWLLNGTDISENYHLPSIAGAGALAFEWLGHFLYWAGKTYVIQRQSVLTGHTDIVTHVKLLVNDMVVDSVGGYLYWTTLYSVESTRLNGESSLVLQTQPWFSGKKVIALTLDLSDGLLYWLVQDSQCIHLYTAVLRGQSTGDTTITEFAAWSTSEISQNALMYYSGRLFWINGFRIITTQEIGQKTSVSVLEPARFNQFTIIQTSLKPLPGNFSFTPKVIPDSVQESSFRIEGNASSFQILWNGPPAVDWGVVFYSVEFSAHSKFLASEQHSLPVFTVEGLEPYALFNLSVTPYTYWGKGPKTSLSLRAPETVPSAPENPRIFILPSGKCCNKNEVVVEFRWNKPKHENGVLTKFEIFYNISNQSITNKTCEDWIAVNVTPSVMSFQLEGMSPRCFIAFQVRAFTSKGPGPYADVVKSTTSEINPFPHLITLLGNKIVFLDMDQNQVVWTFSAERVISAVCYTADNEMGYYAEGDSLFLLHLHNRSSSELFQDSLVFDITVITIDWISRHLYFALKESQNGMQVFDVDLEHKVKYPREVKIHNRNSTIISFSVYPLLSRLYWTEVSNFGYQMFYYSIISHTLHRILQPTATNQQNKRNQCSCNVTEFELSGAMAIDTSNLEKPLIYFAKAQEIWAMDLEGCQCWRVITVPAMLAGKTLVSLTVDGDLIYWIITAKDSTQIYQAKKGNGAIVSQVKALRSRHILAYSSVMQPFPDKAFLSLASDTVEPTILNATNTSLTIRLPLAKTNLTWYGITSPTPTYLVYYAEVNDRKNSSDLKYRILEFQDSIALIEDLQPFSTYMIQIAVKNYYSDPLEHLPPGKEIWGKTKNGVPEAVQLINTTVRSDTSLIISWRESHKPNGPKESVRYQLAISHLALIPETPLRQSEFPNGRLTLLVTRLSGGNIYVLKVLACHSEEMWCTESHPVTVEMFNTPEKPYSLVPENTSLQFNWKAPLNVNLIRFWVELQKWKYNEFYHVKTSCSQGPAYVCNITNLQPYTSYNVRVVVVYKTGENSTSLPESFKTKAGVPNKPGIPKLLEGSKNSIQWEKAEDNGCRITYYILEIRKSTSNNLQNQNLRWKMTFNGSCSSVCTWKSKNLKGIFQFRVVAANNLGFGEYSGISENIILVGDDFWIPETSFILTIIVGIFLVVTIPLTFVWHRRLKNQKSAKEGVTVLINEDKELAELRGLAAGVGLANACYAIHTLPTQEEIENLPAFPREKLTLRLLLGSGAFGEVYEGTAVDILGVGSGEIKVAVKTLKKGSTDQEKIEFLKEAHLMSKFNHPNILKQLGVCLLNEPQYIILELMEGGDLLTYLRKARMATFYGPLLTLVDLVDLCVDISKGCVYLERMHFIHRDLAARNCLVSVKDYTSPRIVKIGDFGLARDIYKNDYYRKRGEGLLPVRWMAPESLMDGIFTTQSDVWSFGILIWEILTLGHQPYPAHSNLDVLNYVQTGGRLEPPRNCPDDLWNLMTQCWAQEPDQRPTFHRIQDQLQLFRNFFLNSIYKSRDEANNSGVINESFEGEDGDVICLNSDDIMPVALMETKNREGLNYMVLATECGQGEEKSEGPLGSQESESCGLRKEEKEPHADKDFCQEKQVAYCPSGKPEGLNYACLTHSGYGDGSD
Sequence of Fibroblast growth factor receptor 1 (Homo sapiens) (P11362 22-822 limits assumed): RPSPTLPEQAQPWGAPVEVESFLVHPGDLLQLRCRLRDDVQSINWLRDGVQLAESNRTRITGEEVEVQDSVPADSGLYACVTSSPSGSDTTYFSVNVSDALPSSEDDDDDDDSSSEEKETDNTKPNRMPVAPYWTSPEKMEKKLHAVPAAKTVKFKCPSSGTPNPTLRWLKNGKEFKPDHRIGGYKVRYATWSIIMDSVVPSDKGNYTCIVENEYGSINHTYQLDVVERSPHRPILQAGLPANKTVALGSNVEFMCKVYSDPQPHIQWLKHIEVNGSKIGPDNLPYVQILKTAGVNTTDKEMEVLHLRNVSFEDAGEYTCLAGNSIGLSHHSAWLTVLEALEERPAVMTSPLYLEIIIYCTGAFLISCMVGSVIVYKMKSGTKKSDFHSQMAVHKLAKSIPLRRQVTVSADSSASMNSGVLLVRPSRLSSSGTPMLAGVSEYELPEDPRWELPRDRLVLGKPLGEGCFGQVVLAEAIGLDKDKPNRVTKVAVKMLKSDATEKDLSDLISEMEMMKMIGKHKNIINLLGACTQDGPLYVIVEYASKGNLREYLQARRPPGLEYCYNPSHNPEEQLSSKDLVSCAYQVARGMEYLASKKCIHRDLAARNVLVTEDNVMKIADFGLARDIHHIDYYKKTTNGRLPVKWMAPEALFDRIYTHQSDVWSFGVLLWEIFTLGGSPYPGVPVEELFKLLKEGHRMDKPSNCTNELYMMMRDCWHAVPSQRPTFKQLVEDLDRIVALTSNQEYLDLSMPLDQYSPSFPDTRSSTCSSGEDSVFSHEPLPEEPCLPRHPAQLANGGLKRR

| Compound | inhibition [1] [%] | inhibition [2] [%] | inhibition [3] [%] | inhibition [4] [%] | inhibition [5] [%] | inhibition [6] [%] | inhibition [7] [%] | inhibition [8] [%] | inhibition [9] [%] | inhibition [10] [%] |
| --- | --- | --- | --- | --- | --- | --- | --- | --- | --- | --- |
| Cn1cc(NC(=O)c2cnn3cccnc23)c(-c2cc(Cl)ccc2OC(F)F)n1 | 62 | 4 | 6 | 4 | 30 | -3 | 4 | 11 | 2 | 44 |
| O=C(Nc1c[nH]nc1-c1cc(Cl)ccc1OC(F)F)c1cnn2cccnc12 | 38 | 1 | -1 | 0 | 32 | 1 | 6 | 12 | -2 | 59 |
| O=C(Nc1c[nH]nc1-c1cc2ccccc2cc1OC(F)F)c1cnn2cccnc12 | 29 | 8 | 1 | 3 | 33 | 5 | -8 | 1 | 3 | 23 |
